Data as given in patent publication US20200222377A1, “Methods Of Enhancing And/Or Stabilizing Cardiac Function In Patients With Fabry Disease” (Amicus Therapeutics, Inc., priority 2017, published 2020).

Assays:
[1] = molecular target: T1, wild-type α-Gal A and specific mutant forms of α-Gal A (Homo sapiens, UniProt P06280); settings: selective and reversible binding; cited from earlier work
T1 sequence (P06280 32-429): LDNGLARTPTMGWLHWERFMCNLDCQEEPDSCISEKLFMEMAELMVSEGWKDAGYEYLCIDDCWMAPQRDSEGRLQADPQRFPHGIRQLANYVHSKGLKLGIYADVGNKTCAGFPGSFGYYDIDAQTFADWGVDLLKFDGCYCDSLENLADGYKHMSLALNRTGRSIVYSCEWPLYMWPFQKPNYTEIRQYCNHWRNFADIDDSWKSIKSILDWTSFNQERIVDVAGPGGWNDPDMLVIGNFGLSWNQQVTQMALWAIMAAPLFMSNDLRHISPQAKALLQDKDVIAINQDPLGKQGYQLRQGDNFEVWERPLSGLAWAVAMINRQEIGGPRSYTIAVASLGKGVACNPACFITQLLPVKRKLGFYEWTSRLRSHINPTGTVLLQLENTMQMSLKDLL

ERT-naïve Fabry patients [2] = experiment: Phase 3 study in ERT-naïve Fabry patients: safety analysis and adverse events
Procedure: (§1) Study Design. Following eligibility-baseline assessments (2 months), patients were randomized to Stage 1—6 months of double-blind administration of 150 mg migalastat hydrochloride or placebo every other day. All patients completing Stage 1 were eligible to receive open-label migalastat in Stage 2 (months 6-12) and for an additional year (months 13-24) thereafter. The primary objective was to compare the effect of migalastat to placebo on kidney GL-3 as assessed by histological scoring of the number of inclusions in interstitial capillaries after 6 months of treatment. The secondary objectives of Stage 1 were to compare the effect of migalastat to placebo on urine GL-3 levels, on renal function, 24-hours urinary protein, and on safety and tolerability. The tertiary objectives were cardiac function, patient-reported outcomes, exploratory kidney analyses, and white blood cell α-Gal A activity. Study completers were eligible to enroll in the open-label extension study for up to 5 years.
(§2) Safety Analysis and Adverse Events. Randomized patients receiving ≥1 dose were included in the safety analysis, which comprised vital signs, physical exams, electrocardiograms, clinical labs, and adverse events.

ERT-naïve Fabry patients [3] = experiment: Phase 3 study of migalastat therapy in ERT-naïve Fabry patients: MWFS by echocardiography; type: in vivo, human; settings: for Change from baseline in MWFS, mean / Mean change from baseline in MWFS: amenable mutations
Procedure: This example describes a Phase 3 study of migalastat therapy in ERT-naïve Fabry patients. Patient Enrollment. […] Study Design. […] Echocardiography. LVMi, left posterior wall thickness, diastolic, interventricular septum thickness, diastolic and other parameters were assessed through blinded, centralized evaluation. Baseline MWFS. At baseline, impaired MWFS (<15% for females and <14% for males) was reported in 9 patients.

[4] = test system: ERT-experienced Fabry patients; experiment: Phase 3 study of migalastat therapy in ERT-experienced Fabry patients: MWFS by echocardiography; type: in vivo, human
Procedure: This example describes a Phase 3 study of migalastat therapy in ERT-experienced Fabry patients.
Study Design. Following eligibility-baseline assessments, 57 patients were randomized to 18 months of migalastat therapy or ERT, followed by followed by 12 months of migalastat therapy. The migalastat dosing regimen was 150 mg of migalastat hydrochloride every other day.
Baseline MWFS. At baseline, impaired MWFS (<15% for females and <14% for males) was reported in 19 (14 migalastat, 5 ERT) patients.

ERT-naïve Fabry patients [5] = settings: human, in vivo
Procedure: as §1, §2

[6] = open-label-extension (months 12-24), 6/57 patients
[7] = patients with LVH at baseline, Month 48

SMILES: OC[C@H]1NC[C@H](O)[C@@H](O)[C@H]1O [migalastat, (2R,3S,4R,5S)-2-(hydroxymethyl) piperdine-3,4,5-triol]
- Binding to the active site of α-Gal A (in words) [1]: high affinity
- Patients who experienced serious adverse events (ERT-naïve Fabry patients [2]; Stage 1, migalastat group): 2 patients
- Patients who experienced serious adverse events (ERT-naïve Fabry patients [2]; Stage 2): 5 patients
- Adverse event frequency: procedural pain (related to kidney biopsies) (ERT-naïve Fabry patients [2]; Stage 2 (months 6-12, open-label), 7/63 patients): 11%
- Adverse event frequency: headache (ERT-naïve Fabry patients [2]; Stage 2 (months 6-12, open-label), 9/63 patients): 14%
- Progression to end-stage renal disease, cardiac death, stroke (ERT-naïve Fabry patients [2]; as defined in Banikazemi et al.): no progression to end-stage renal disease, no cardiac death and no stroke
- Patients who discontinued migalastat due to serious adverse events (ERT-naïve Fabry patients [2]; both deemed unrelated to migalastat): Two
- Serious adverse events assessed as possibly related to migalastat by the investigator (ERT-naïve Fabry patients [2]; fatigue and paresthesia, same patient, months 12-24, resolved): Two
- Adverse events leading to migalastat discontinuation (ERT-naïve Fabry patients [2]; human, in vivo): No adverse events led to migalastat discontinuation
- Severity of most adverse events (ERT-naïve Fabry patients [2]; human, in vivo): mild or moderate in severity
- Vital sign, physical findings, laboratory and ECG parameters (ERT-naïve Fabry patients [2]; human, in vivo): did not reveal any clinically relevant effect
- Transient ischemic attack (ERT-naïve Fabry patients [2]; judged unrelated to migalastat): single case
- Patients who experienced serious adverse events (ERT-naïve Fabry patients [2]; open-label-extension): 11 patients
- Adverse event frequency: bronchitis (ERT-naïve Fabry patients [2]; [6]): 11%
- Adverse event frequency: headache (ERT-naïve Fabry patients [2]; [6]): 11%
- Adverse event frequency: proteinuria (treatment-emergent) (ERT-naïve Fabry patients [2]; open-label-extension (months 12-24), 9/57 patients): 16%
- Patients in whom 24-hour urine protein remained stable during migalastat treatment (ERT-naïve Fabry patients [2]; patients with baseline proteinuria <300 mg/24-h): 23/28
- Effect on MWFS (in words) (ERT-naïve Fabry patients [3]; ERT-naïve patients with impaired MWFS at baseline): increased MWFS
- Change from baseline in MWFS, mean (ERT-naïve Fabry patients [3]; patients with LVH at baseline, LOCF, over 48 months): 1.0%
- Change from baseline in MWFS, mean (ERT-naïve Fabry patients [3]; patients with LVH at baseline, Month 12): 0.2%
- Change from baseline in MWFS, mean (ERT-naïve Fabry patients [3]; patients with LVH at baseline, Month 24): 0.9%
- Change from baseline in MWFS, mean (ERT-naïve Fabry patients [3]; patients with LVH at baseline, Month 36): 0.7%
- Change from baseline in MWFS, mean (ERT-naïve Fabry patients [3]; [7]): 0.6%
- Normalization of MWFS, patients n/N (%) (ERT-naïve Fabry patients [3]; [7]): 0
- Mean change from baseline in MWFS (ERT-naïve Fabry patients [3]; patients with impaired MWFS at baseline, LOCF, over 48 months): 1.9%
- Mean change from baseline in MWFS (ERT-naïve Fabry patients [3]; patients with impaired MWFS at baseline, LOCF, over 48 months, listed as Migalastat): 1.9%
- Mean change from baseline in MWFS (ERT-naïve Fabry patients [3]; patients with impaired MWFS at baseline, Month 12, 150 mg migalastat HCl QOD): 0.1%
- Mean change from baseline in MWFS (ERT-naïve Fabry patients [3]; patients with impaired MWFS at baseline, Month 24): 1.4%
- Mean change from baseline in MWFS (ERT-naïve Fabry patients [3]; patients with impaired MWFS at baseline, Month 36): 1.4%
- Mean change from baseline in MWFS (ERT-naïve Fabry patients [3]; patients with impaired MWFS at baseline, Month 48): 2.4%
- Normalization of MWFS, patients n/N (%) (ERT-naïve Fabry patients [3]; patients with impaired MWFS at baseline, Month 12): 0
- Effect on MWFS (in words) ([4]; ERT-experienced patients with impaired MWFS at baseline): stabilized MWFS
- Mean change from baseline in MWFS ([4]; patients with impaired MWFS at baseline, LOCF, over 30 months of migalastat therapy, n=14): −0.2%
- Deaths (ERT-naïve Fabry patients [5]): No deaths were reported
